Patent publication US7425614B2, “Neuroprotective therapeutics preventing ERK/MAPK activation through the NMDA receptor” (Children's Medical Center Corporation, priority 2003, dated 2008)
Like-named read-outs stand apart in the source and are kept apart here. Values belong to the molecule of their own block, whether it stands above or below them.

Experiments:
[1] = test system: CREB transcription factor; assay: phosphorylation of CREB in cultured hippocampal neurons; format: cell-based, rat; conditions: control experiments
[2] = test system: ERK; assay: phospho-ERK immunocytochemistry in cultured hippocampal neurons; format: cell-based, rat
Procedure: Neurons from 18 day rat embryos were dissociated using trypsin and plated on coverslips coated with poly-L-ysine in minimal essential medium (MEM) with 10% NU serum (BD Biosciences, Le Pont de Claix, France) at densities of 30,000 cells/cm^2 as described (Brewer, G. J. (1995) J. Neurosci. Res. 42, 674-683). On days 7 and 11 of culture incubation, half of the medium was changed to MEM with 2% B27 supplement (Invitrogen).
Cells were transfected with cDNA for EGFP fusion proteins (LipofectAMINE 2000; Invitrogen) or by pseudoviral infection using a Sindbis expression system (Invitrogen). Neurons were incubated with cDNA and LipofectAMINE for 2 hr, rinsed, and incubated with culture media (MEM with 2% of B27 supplement) 17 hr prior to the experiment. For viral delivery, neuronal cultures were incubated 30 min with pseudoviral constructs diluted 200-500× in culture media. Cultures were rinsed and incubated in media for 15 hr. 0.1% to 1.5% of neurons were fluorescent after expressing LipofectAMINE-delivered constructs while Sindbis infection yielded 1%-10% transfection efficiency. Most of the experiments were performed on 12-14 days in vitro (div) cultures unless otherwise indicated.
Three hours before stimulation, TTX (1 μM), CNQX (40 μM), APV (100 μM), and nimodipine (5 μM) were added to neurons. For stimulation, coverslips with neurons were transferred into the following solutions.
(1) 100 μM NMDA, 10 μM glycine, 1 μM TTX, 40 μM CNQX, 5 μM nimodipine dissolved in culture media and incubated for 3 min. […]
After stimulation, neurons were fixed with 4% formaldehyde and labeled with rabbit anti-phospho-p44/42 ERK antibody (Cell Signaling) and with mouse anti-MAP2 antibody (Sternberger Monoclonals). Cy3-conjugated goat anti-rabbit IgG and Cy5-conjugated goat antimouse IgG (Jackson Immunoresearch Laboratories, West Grove, Pa.) were secondary antibodies. NMDA and all antagonists were from Tocris Neuramin. BDNF was from Calbiochem. Images were acquired with an Olympus Fluoview-500 confocal microscope (40×; 1.0 NA) and quantified using Olympus Fluoview software. In each experiment, the pERK fluorescence of the cell soma was measured for 25 neurons taken from consecutive fields. Phospho-ERK fluorescence data were normalized to the values obtained in nontransfected cells after NMDA stimulation. The background fluorescence (mean fluorescence of nonstimulated neurons) was subtracted prior to normalization.

[3] = test system: SynGAP; assay: phosphorylation of SynGAP in cultured hippocampal neurons; format: cell-based, rat; conditions: control experiments
[4] = test system: NMDA receptors; conditions: cited from earlier work
[5] = target: T1, NR2B (Rattus norvegicus, UniProt P35439+Q00960); conditions: 3 μM; heterologous expression systems; cited from earlier work
T1 construct: host or cells: heterologous expression systems (not specified)

[6] = target: T2, NR2A (Rattus norvegicus, UniProt Q00959); conditions: 3 μM; heterologous expression systems; cited from earlier work
T2 construct: host or cells: heterologous expression systems (not specified)

[7] = test system: NMDA receptor; assay: whole-cell recordings of NMDAR-mediated currents in cultured hippocampal neurons; format: cell-based, rat
[8] = target: T3, full-length NR2B (Rattus norvegicus, UniProt Q00960); assay: in vitro binding of in vitro translated HA-tagged RasGRF1 fragments to full-length NR2B (co-immunoprecipitation); conditions: epitope-tagged RasGRF1 fragments
T3 construct: In vitro translated full-length NR2B and HA-tagged RasGRF1 fragments were co-immunoprecipitated with anti-HA antibody; made in house; host or cells: cell-free in vitro translation (35S-labelled)
Source text: For in vitro translation, fragments of rat NR2B and rat RasGRF1 were made by PCR with 5′-primers containing AU1- and HA-tag encoding sequences; amplified sequences were subcloned into pcDNA3.1. For 293T transfection, the following cDNAs were used: mouse RasGRF1 in pcDNA3, GFP-rat NR2B, GFP rat NR2A in pcDNA1.1, and rat NR1 in pEGFP-C1 (Clontech). EGFP fusion constructs were made by subcloning cDNA fragments encoding different portions of NR2B and RasGRF1 into pEGFP-C1 (Clontech). EGFP fusion constructs were transferred from pEGFP into pSinRep5 and used for preparation of the Sindbis pseudovirus gene transfer system according to the manufacturer's protocol (Invitrogen, Carlsbad, Calif.).
For in vitro binding experiments, equimolar amounts of in vitro translated ^35S-labeled proteins (calculated from radioactivity of the excised protein band and cysteine content in the specific fragment) were incubated with a 3-fold molar excess of translated RasGRF1 for 30 min at 30° C., diluted with RIPA buffer, and immunoprecipitated with anti-HA-agarose (Santa Cruz). In competition experiments, RasGRF1 and NR2B were immunoprecipitated for 2 hr at 4° C. from solubilized rat brain microsomes in the presence of 10 μM NusA, 10 μM NusA-RasGRF1-BD, or 5 μM NusA-NR2B-BD.

T3 sequence (Q00960 27-1482 E1256K/V1430S/T1431A): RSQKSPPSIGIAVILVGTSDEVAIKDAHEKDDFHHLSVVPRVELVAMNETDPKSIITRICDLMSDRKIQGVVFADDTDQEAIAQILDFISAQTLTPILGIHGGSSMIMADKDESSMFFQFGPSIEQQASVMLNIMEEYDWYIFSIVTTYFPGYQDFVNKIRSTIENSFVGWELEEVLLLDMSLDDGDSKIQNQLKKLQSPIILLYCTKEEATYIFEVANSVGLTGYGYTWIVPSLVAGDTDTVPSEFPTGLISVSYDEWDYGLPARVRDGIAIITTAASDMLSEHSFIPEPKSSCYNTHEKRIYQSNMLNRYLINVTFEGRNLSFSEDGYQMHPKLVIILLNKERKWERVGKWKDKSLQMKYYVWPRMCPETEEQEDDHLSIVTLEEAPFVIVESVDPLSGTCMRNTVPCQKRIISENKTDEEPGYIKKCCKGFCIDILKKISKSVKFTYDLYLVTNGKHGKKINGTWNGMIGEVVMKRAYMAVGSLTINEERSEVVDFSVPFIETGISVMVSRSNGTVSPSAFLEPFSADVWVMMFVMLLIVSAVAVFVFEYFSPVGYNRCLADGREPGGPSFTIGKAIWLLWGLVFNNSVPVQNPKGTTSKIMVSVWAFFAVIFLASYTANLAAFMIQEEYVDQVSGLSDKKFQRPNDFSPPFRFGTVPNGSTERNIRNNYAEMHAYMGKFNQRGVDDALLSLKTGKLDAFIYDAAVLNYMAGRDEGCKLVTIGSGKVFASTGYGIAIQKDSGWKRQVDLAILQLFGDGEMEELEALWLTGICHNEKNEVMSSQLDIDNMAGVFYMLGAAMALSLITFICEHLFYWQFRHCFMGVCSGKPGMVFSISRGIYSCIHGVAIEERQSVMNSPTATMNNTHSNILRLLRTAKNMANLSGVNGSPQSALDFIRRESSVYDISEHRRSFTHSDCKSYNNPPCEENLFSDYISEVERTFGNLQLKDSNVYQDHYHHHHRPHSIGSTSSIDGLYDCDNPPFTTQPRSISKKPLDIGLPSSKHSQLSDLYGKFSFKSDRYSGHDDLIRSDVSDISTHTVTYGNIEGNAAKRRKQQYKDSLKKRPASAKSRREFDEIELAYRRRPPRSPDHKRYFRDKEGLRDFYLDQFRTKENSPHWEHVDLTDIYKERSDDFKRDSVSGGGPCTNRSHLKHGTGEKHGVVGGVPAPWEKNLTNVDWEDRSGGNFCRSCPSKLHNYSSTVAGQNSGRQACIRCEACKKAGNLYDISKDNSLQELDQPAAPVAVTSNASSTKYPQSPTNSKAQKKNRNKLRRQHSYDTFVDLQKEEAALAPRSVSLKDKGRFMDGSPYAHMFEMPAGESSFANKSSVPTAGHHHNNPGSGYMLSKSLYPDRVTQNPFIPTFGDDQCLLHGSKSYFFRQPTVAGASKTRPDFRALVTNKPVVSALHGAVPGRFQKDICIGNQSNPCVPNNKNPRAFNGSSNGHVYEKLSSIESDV
T1 sequence (Q00960 27-1482, other chains not shown): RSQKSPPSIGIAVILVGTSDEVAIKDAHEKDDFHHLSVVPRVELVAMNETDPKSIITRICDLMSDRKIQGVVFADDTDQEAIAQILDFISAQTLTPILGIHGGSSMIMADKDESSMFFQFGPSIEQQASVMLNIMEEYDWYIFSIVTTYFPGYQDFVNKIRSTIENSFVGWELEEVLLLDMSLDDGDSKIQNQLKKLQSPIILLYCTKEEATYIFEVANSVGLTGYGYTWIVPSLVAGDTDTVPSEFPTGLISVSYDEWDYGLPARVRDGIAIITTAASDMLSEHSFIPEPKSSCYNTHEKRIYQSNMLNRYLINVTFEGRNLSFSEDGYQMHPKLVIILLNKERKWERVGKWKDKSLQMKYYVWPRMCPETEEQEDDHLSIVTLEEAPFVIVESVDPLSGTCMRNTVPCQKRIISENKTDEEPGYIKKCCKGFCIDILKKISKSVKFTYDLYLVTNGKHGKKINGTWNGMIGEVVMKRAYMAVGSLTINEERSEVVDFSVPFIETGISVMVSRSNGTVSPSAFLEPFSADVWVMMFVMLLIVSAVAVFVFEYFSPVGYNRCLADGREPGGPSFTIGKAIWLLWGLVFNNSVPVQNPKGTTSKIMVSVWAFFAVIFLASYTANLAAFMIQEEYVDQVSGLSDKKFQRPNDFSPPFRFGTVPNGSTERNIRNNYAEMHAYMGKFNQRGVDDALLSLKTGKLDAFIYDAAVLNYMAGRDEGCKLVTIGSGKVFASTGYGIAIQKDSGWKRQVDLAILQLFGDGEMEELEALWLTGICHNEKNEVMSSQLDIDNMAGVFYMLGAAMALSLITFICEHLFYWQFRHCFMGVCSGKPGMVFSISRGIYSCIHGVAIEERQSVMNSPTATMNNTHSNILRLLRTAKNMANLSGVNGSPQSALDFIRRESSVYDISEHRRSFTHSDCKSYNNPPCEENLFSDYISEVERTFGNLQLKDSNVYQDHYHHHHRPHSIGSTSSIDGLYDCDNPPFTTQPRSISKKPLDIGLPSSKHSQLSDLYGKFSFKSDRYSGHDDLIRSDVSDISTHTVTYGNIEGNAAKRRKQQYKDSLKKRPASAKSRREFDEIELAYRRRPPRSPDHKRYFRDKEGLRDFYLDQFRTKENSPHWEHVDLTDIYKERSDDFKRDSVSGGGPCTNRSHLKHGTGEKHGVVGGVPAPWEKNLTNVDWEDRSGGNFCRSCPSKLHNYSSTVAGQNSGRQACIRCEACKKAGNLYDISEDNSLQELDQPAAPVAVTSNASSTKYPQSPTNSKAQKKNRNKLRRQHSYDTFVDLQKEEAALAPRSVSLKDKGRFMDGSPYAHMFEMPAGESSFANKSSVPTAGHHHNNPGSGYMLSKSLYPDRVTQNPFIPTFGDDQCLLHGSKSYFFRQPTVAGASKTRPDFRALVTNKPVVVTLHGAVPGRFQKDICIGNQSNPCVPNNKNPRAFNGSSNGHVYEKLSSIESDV
T2 sequence (Q00959 23-1464): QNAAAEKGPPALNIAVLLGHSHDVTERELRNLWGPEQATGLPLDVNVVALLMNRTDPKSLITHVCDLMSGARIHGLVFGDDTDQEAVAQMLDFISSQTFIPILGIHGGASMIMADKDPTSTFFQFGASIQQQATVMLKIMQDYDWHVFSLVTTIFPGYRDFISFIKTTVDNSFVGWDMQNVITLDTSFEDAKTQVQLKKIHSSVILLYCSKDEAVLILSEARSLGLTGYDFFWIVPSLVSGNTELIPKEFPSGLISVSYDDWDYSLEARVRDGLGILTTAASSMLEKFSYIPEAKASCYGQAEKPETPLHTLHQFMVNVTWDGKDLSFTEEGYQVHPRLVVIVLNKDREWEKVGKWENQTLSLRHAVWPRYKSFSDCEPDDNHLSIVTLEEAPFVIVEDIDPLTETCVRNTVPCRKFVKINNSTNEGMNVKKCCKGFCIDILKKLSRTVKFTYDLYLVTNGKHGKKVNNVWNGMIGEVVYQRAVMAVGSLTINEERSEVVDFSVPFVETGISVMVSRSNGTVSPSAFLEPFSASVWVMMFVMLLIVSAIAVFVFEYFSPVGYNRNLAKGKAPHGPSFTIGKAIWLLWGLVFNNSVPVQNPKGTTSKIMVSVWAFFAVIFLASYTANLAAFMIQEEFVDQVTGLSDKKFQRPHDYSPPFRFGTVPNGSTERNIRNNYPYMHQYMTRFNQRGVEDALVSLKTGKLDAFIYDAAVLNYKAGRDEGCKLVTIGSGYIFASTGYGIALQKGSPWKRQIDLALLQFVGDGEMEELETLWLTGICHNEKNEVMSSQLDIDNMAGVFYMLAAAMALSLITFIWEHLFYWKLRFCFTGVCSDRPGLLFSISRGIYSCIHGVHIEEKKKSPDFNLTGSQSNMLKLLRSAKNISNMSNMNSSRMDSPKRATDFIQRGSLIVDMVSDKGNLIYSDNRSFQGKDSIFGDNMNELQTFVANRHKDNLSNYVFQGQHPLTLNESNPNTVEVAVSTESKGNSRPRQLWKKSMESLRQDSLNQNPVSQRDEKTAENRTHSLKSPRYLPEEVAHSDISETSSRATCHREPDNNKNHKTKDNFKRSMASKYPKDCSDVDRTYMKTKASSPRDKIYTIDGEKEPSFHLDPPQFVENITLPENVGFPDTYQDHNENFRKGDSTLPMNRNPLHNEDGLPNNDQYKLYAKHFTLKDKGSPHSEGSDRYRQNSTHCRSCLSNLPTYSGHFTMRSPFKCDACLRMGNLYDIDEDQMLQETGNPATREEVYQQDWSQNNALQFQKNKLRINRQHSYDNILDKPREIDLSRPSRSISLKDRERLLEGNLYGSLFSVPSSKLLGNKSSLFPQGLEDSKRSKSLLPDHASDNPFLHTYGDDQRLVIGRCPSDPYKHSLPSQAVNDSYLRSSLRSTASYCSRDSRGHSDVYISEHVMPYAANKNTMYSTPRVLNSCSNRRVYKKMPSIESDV

- binding to NR2B in vitro [8]: bound
B1: RasGRF1 amino acids 714-1244: C-terminal prey-containing sequence of RasGRF1 (protein, UniProt Q13972 714-1244, looked up, fragment)
chain: FASGQNNKLLYGEPPKSPRATRKFSSPPPLSITKTSSPSRRRKLSLNIPIITGGKALDLAALSCNSNGYTSMYSAMSPFSKATLDTSKLYVSSSFTNKIPDEGDTTPEKPEDPSALSKQSSEVSMREESDIDQNQSDDGDTETSPTKSPTTPKSVKNKNSSEFPLFSYNNGVVMTSCRELDNNRSALSAASAFAIATAGANEGTPNKEKYRRMSLASAGFPPDQRNGDKEFVIRRAATNRVLNVLRHWVSKHSQDFETNDELKCKVIGFLEEVMHDPELLTQERKAAANIIRTLTQEDPGDNQITLEEITQMAEGVKAEPFENHSALEIAEQLTLLDHLVFKKIPYEEFFGQGWMKLEKNERTPYIMKTTKHFNDISNLIASEIIRNEDINARVSAIEKWVAVADICRCLHNYNAVLEITSSMNRSAIFRLKKTWLKVSKQTKALIDKLQKLVSSEGRFKNLREALKNCDPPCVPYLGMYLTDLAFIEEGTPNYTEDGLVNFSKMRMISHIIREIRQFQQTAYKIEHQAKV

- binding to NR2B in vitro [8]: did not bind
B2: RasGRF1 amino acids 835-913: shorter peptide of the RasGRF1-specific sequence (protein, UniProt Q13972 835-913, looked up, fragment)
chain: EVSMREESDIDQNQSDDGDTETSPTKSPTTPKSVKNKNSSEFPLFSYNNGVVMTSCRELDNNRSALSAASAFAIATAGA

The remaining lines, values behind:

Molecule: COc1ccc(S(=O)(=O)N(CCO)c2ccccc2CN(C)C/C=C/c2ccc(Cl)cc2)cc1 [KN-93]
- phosphorylation of CREB [1]: effectively suppressed
- NMDA-dependent ERK activation ([2]; 5 μM in the incubation media): had no effect
- bicuculline-induced ERK activation ([2]; cultured hippocampal neurons, 10 μM bicuculline): altered neither
- NMDA-induced (NMDAR-dependent) ERK activation ([2]; cultured hippocampal neurons, 100 μM NMDA): altered neither
- phosphorylation of SynGAP [3]: effectively suppressed

Molecule: CC(C(O)c1ccc(O)cc1)N1CCC(Cc2ccccc2)CC1 (stereo not drawn) [ifenprodil]
- inhibition of NMDA-mediated current ([4]; 3-week-old cultures): 20%-30
- inhibition of NMDA-mediated current ([4]; young neuronal cultures): ~70%
- inhibition of NR2B-mediated current [5]: up to 80%
- effect on NR2A-mediated current [6]: has no effect
- decrease of the portion of the ifenprodil-sensitive NMDA current with days in culture [7]: ~25%
- frequency of spontaneous NMDAR EPSCs [7]: significantly reduced
- suppression of NMDAR current [7]: 60%
- inhibition at 3 µM ([2]; Rattus norvegicus, Hippocampal neuron, 3 μM, hippocampal neurons 8 div, read-out: inhibition of NMDAR activated ERK): 70%
- degree of ifenprodil-sensitive ERK activation with days in culture ([2]; during neuron maturation): did not change significantly

B3: RasGRF1 amino acids 714-841: shorter peptide of the RasGRF1-specific sequence (protein, UniProt Q13972 714-841, looked up, fragment)
chain: FASGQNNKLLYGEPPKSPRATRKFSSPPPLSITKTSSPSRRRKLSLNIPIITGGKALDLAALSCNSNGYTSMYSAMSPFSKATLDTSKLYVSSSFTNKIPDEGDTTPEKPEDPSALSKQSSEVSMREE
- binding to NR2B in vitro [8]: did not bind

B4: RasGRF1 amino acids 1-720: N-terminal portion of RasGRF1, which contains multiple functional domains (protein, UniProt Q13972 1-720, looked up, fragment)
chain: MQKGIRLNDGHVASLGLLARKDGTRKGYLSKRSSDNTKWQTKWFALLQNLLFYFESDSSSRPSGLYLLEGCVCDRAPSPKPALSAKEPLEKQHYFTVNFSHENQKALELRTEDAKDCDEWVAAIAHASYRTLATEHEALMQKYLHLLQIVETEKTVAKQLRQQIEDGEIEIERLKAEITSLLKDNERIQSTQTVAPNDEDSDIKKIKKVQSFLRGWLCRRKWKTIIQDYIRSPHADSMRKRNQVVFSMLEAEAEYVQQLHILVNNFLRPLRMAASSKKPPITHDDVSSIFLNSETIMFLHQIFYQGLKARISSWPTLVLADLFDILLPMLNIYQEFVRNHQYSLQILAHCKQNRDFDKLLKHYEAKPDCEERTLETFLTYPMFQIPRYILTLHELLAHTPHEHVERNSLDYAKSKLEELSRIMHDEVSETENIRKNLAIERMIIEGCEILLDTSQTFVRQGSLIQVPMSEKGKITRGRLGSLSLKKEGERQCFLFSKHLIICTRGSGGKLHLTKNGVISLIDCTLLEEPESTEEEAKGSGQDIDHLDFKIGVEPKDSPPFTVILVASSRQEKAAWTSDISQCVDNIRCNGLMMNAFEENSKVTVPQMIKRTREGTREAEMSRSDASLYCDDVDIRFSKTMNSCKVLQIRYASVERLLERLTDLRFLSIDFLNTFLHSYRVFTTAIVVLDKLITIYKKPISAIPARWLRSLELLFASGQNN
- binding to NR2B in vitro [8]: did not bind
